Measurements: PubChem BioAssay (NCI)
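Test compounds were applied to cells in 96-well plates for 48 hours at 5 doses. TGI denotes the concentration required for complete inhibition of growth.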

What was measured:
Assay in all cases: growth of human tumour cells (NCI), 48 h
[1] = system: MOLT-4 leukemia
[2] = system: RXF 393 renal
[3] = system: COLO 205 colon
[4] = system: MALME-3M melanoma
[5] = system: EKVX NSCLC
[6] = system: T-47D breast
[7] = system: TK-10 renal
[8] = system: UACC-62 melanoma
[9] = system: NCI/ADR-RES ovarian
[10] = system: NCI-H23 lung
[11] = system: HCC-2998 colon
[12] = system: LOX IMVI melanoma
[13] = system: MDA-MB-435
[14] = system: HCT-116 colon
[15] = system: SW-620 colon
[16] = system: U251 CNS
[17] = system: A498 renal
[18] = system: OVCAR-4 ovarian
[19] = system: SF-295 CNS
[20] = system: NCI-H460 lung
[21] = system: SN12C renal
[22] = system: CCRF-CEM leukemia
[23] = system: KM12 colon
[24] = system: IGROV1 ovarian
[25] = system: HOP-62 NSCLC
[26] = system: DU-145 prostate
[27] = system: 786-0 renal
[28] = system: UACC-257 melanoma
[29] = system: SK-OV-3 ovarian
[30] = system: SF-268 CNS
[31] = system: SNB-19 CNS
[32] = system: NCI-H522 lung
[33] = system: ACHN renal
[34] = system: HCT-15 colon
[35] = system: OVCAR-5 ovarian
[36] = system: OVCAR-3 ovarian
[37] = system: SK-MEL-28 melanoma
[38] = system: PC-3 prostate
[39] = system: MCF7 breast
[40] = system: HT29 colon
[41] = system: A549 NSCLC
[42] = system: M14 melanoma
[43] = system: CAKI-1 renal
[44] = system: MDA-N
[45] = system: HOP-92 NSCLC
[46] = system: HS 578T breast
[47] = system: UO-31 renal
[48] = system: OVCAR-8 ovarian
[49] = system: HL-60(TB) leukemia
[50] = system: NCI-H226 lung
[51] = system: SF-539 CNS
[52] = system: K-562 leukemia
[53] = system: SK-MEL-5 melanoma
[54] = system: BT-549 breast
[55] = system: RPMI-8226 leukemia
[56] = system: SR leukemia

Measured: TGI

COc1cccc(/C=N/NC(=O)CN(C)C)c1O
> 100 µM: [1] | [2] | [3] | [4] | [5] | [6] | [7] | [8] | [9] | [10] | [11] | [12] | [13] | [14] | [15] | [16] | [17] | [18] | [19] | [20] | [21] | [22] | [23] | [24] | [25] | [26] | [27] | [28] | [29] | [30] | [31] | [32] | [33] | [34] | [35] | [36] | [37] | [38] | [39] | [40] | [41] | [42] | [43] | [44] | [45] | [46] | [47] | [48] | [49] | [50] | [51] | [52] | [53] | [54]

CP(=O)(O)C(N)c1ccccc1 (stereo unspecified)
> 100 µM: [1] | [3] | [4] | [55] | [5] | [6] | [7] | [8] | [9] | [10] | [12] | [13] | [14] | [15] | [16] | [18] | [19] | [20] | [21] | [22] | [23] | [24] | [25] | [26] | [27] | [28] | [29] | [30] | [31] | [32] | [56] | [33] | [34] | [35] | [36] | [37] | [38] | [39] | [40] | [41] | [42] | [43] | [44] | [45] | [46] | [47] | [48] | [49] | [50] | [52] | [53] | [54]
